From US20150342933A1, “APORPHINE ALKALOID DERIVATIVE FOR […]-DEPENDENT PROTEIN KINASE” (ZIH YUAN TANG Biotechnology Co., Ltd, priority 2014, published 2015)

System: AMPK
Assay: AMPK phosphorylation in C2C12 myocytes (Western blot, Phospho-AMPKα Thr172)
Assay type: cell-based, mouse
Description: C2C12 skeletal myoblast cell line was purchased from the Food Industry Research and Development Institute (Hsinchu, Taiwan). The C2C12 cell line was a cell line obtained from culturing the leg skeletal muscle of adult C3H mice in a cell incubator under 95% […], 5% CO2, and 37° C. The cells were cultured in a DMEM medium (Gibco/Invitrogen, Carlsbad, Calif.) containing 4.5 mg/mL glucose, 10% fetal bovine serum (FBS; Gibco/Invitrogen, Carlsbad, Calif.), and an antibiotic solution (with final concentrations of penicillin=100 IU/mL and streptomycin=100 μg/mL). When the C2C12 myoblast cells have proliferated to cover seven-tenths of the area in the petri dish, the fetal bovine serum was replaced by 2% horse serum (Gibco/Invitrogen, Carlsbad, Calif.) so as to induce the C2C12 myoblast cells to become the multi-nuclei myocytes. The C2C12 myoblast cells differentiated into myocytes in 4 days, and the culture medium of the cells was replaced with no-serum DMEM 24 hours before the experiments so as to reduce metabolism of the cells.
The C2C12 myocytes were treated respectively with 1 μM, 3 μM and 10 μM 1,10-dihydroxyaporphine hydrobromide for 5 and 15 minutes. Then the C2C12 myocytes were rinsed with PBS buffer solution, and RIPA buffer solution containing protease inhibitors (20 mM Tris-HCl (pH 7.4), 100 mM NaCl, 1 mM EDTA, 1 mM EGTA, 0.1% SDS, 0.5% sodium deoxycholate, 1% NP-40, and 100× protease inhibitor cocktail) was added into the cells. The cells were collected and centrifuged on ice. Then, the concentrations of the supernatant samples were adjusted to be the same.
The supernatant samples were put through vertical electrophoresis isolation with 8% SDS-PAGE, and the isolated proteins were transferred onto a PVDF blotting membrane. After blotting was completed, the PVDF blotting membrane was removed and blocked for 1 hour under room temperature with a blocking buffer of TBST (Tris-buffered saline with Tween-20) with 5% non-fat milk. Then, the PVDF blotting membrane was placed into a 5% BSA and TBST solution containing the primary monoclonal antibodies Phospho-AMPKα (Thr172) (Cell Signaling) (1:1000) and AMPKα […] (Cell Signaling) (1:1000), respectively, and the primary immunoblotting reaction was performed under 4° C. Then, the PVDF blotting membrane was rinsed 3 times with TBST, and a TBST solution containing the secondary antibody goat anti-rabbit IgG (Perkin Elmer) (1:10000) was added to perform the secondary reaction for one hour under room temperature. Finally, the membrane was rinsed 3 times with TBST before ECL (enhanced chemiluminescence) was added to present color.

Br.CN1CCc2ccc(O)c3c2C1Cc1ccc(O)cc1-3 (stereo not shown) [1,10-dihydroxyaporphine hydrobromide]
AMPK phosphorylation, times of that in the control cells (3 μM, 5 minutes): 1.33 times | AMPK phosphorylation, times of that in the control cells (3 μM, 15 minutes): 1.21 times | AMPK phosphorylation, times of that in the control cells (10 μM, 5 minutes): 1.23 times | AMPK phosphorylation, times of that in the control cells (10 μM, 15 minutes): 1.65 times
